Counter-ions that a name gives are not always drawn. Like-named read-outs stand apart in the source and are kept apart here.

Among the data in patent US4555572A, “Pyrazolo[3,4,5-kl]acridine compositions and methods for their production and use” (Warner-Lambert Company, priority 1984, dated 1985) are IC50, MIC and response vs control in vivo values, retold here.

The test system of one assay is HCT-8 cells. Put plainly: in vitro proliferating human colon adenocarcinoma (HCA) cell screen, HCT-8. The class given is cell-based. As to the method:
(a) One test protocol is the in vitro proliferating human colon adenocarcinoma (HCA) cell screen. In this test, HCT-8 cells (HCA cell line received from Yale University) are trypsinized using trypsin-EDTA. A single cell suspension is achieved by passing the cells through a 26 gauge needle with a 20-cc syringe. A cell suspension is prepared using RPMI 1640+10% FCS+50 μg/ml gentamicin sulfate with a cell concentration is approximately 30,000 cells/ml. The cell suspension is dispensed in Linbro 24-well plates; 1 ml/well. The plates are incubated for approximately 48 hours at 37° C. in a 5% CO2 atmosphere. At this time test compounds are added in the appropriate concentration. Five μl of the 200 μg/ml stock solution is added to each well in a primary test. […] of the appropriate dilution is added to each well for a titration test. The plates are reincubated an additional 60 to 65 hours at 37° C. in a 5% CO 2 atmosphere. The cells are lysed using a mix of cationic surfactant, glacial acetic acid, and sodium chloride. Two ml of the lysed cell suspension from each well is added to 8 ml of diluent. The number of nuclei is determined using a Coulter counter (ZBI model), and a percent growth for each drug concentration is calculated. From this, and ID50 (molar concentration of compound that results in 50% inhibition of growth) is determined.

In the next assay the test system is L1210 cells. Briefly: PDC test, L1210 cell growth. In kind it is cell-based, murine. The conditions noted are these: Mus musculus, read-out: PDC ID50. As to the method:
(c) Another test protocol is the PDC test. L1210 cells, a murine leukemia cell line, were grown in RPMI 1640 supplemented with 10% fetal bovine serum and genamicin (50 μg/ml). Drug dilutions were prepared in the appropriate solvent and 20 μl of each dilution were added to 24-well Linbro tissue culture plates followed by the addition of 2.0 ml of cell suspension containing 3×10^4 cells per ml. Solvent and medium controls were included in each test. After incubation at 37° C. for three days in 5% CO2 in air, the contents of each well were removed and the cells counted in a ZBI Coulter counter. Per cent growth was calculated relative to the controls and the levels of drug activity were expressed as ID50 in terms of molarity (M).

Another assay has as its system Alcaligenes viscolactis. Put plainly: in vitro antibacterial (ABMF) microdilution susceptibility test. The note with it: read-out: ABMF Test M.I.C. A. visc. The class given is cell-based. Summed up:
(§1)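 Standard microdilution susceptibility in Mueller-Hinton broth: inoculated wells contain test compound at 1000, 333, 111, 37, 12, 4, 1.4 and 0.46 μg/mL.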

The next assay has as its system Bacillus cereus. The description is as above. In kind it is cell-based. The conditions noted are these: read-out: ABMF Test M.I.C. B. cere. Summed up: as §1
A further assay relates to Branhamella catarrhalis. The description is as above. In kind it is cell-based. The note with it: Moraxella catarrhalis, read-out: ABMF Test M.I.C. B. cata. Summed up:
as §1

The test system of the next assay is Escherichia coli. Described as above. The conditions noted are these: read-out: ABMF Test M.I.C. E. coli. The class given is cell-based. A digest of the protocol:
as §1

Another assay relates to Streptococcus pneumoniae. The assay is described as above. The note with it: read-out: ABMF Test M.I.C. S. pneu. In kind it is cell-based. A digest of the protocol: as §1
For assay [1], the system named is lymphocytic leukemia P388. Put plainly: in vivo lymphocytic leukemia P388 test. Also noted: species or system CD2 F1 mice. The note with it: Mus musculus, P388, ip, 120 h. A digest of the protocol:
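CD2 F1 mice (6–7 per group) inoculated i.p. with P388 ascitic cells; compound dosed i.p. once daily for 5 consecutive days after inoculation. Survival followed 30 days; efficacy as treated/control survival time ×100 (≥125 criterion); "toxic" if all animals died within 4 days of first dose.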

[2] abbreviates: HCT-8 cells, 60 to 65 hours, ED50, read-out: HCA ED50 Avg.
Setting [3] is: Mueller-Hinton broth, 37° C., 16-24 hours.
Setting [4] is: 6.25 mg/kg, intraperitoneally once daily for five days, read-out: P388 in vivo T/C × 100.
[5] abbreviates: 12.5 mg/kg, intraperitoneally once daily for five days, read-out: P388 in vivo T/C × 100.
[6] abbreviates: 25 mg/kg, intraperitoneally once daily for five days, read-out: P388 in vivo T/C × 100.
The mark [7] stands for this setting: 50 mg/kg, intraperitoneally once daily for five days, read-out: P388 in vivo T/C × 100.
The mark [8] stands for this setting: read-out: P388 in vivo T/C × 100, 6.25 mg/kg, intraperitoneally once daily for five days.
[9] abbreviates: read-out: P388 in vivo T/C × 100, 12.5 mg/kg, intraperitoneally once daily for five days.
Where [10] appears, read: read-out: P388 in vivo T/C × 100, 25 mg/kg, intraperitoneally once daily for five days.
Where [11] appears, read: HCT-8, read-out: HCA in vitro ID50 avg.

`CCOc1ccc2c(c1)-c1nn(CCNCCO)c3ccc([N+](=O)[O-])c(c13)N2` [Example 40, 2-[[2-(9-Ethoxy-5-nitropyrazolo[3,4,5-kl]acridin-2(6H)-yl)ethyl]amino]ethanol, monohydrochloride, hydrate (4:1)]: the IC50 in the assay with HCT-8 cells (setting [2]) came to 0.082 µM; in the assay on L1210 cells (72 h, L1210 cells, three days), 0.32 µM. Also, the MIC in the assay on Alcaligenes viscolactis (setting [3]) is less than 0.46 µg/mL; with Bacillus cereus (setting [3]), less than 0.46 µg/mL; in the assay on Branhamella catarrhalis (setting [3]), 4.1 µg/mL; in the assay with Escherichia coli (setting [3]) it was 4.1 µg/mL; in the assay with Streptococcus pneumoniae (setting [3]) it was less than 0.46 µg/mL. The response vs control in vivo at 6.25 mg/kg in assay [1] (setting [4]) was 134%. The response vs control in vivo at 12.5 mg/kg in assay [1] (setting [5]) stood at 156%. Moreover, in assay [1] (setting [6]), the response vs control in vivo at 25 mg/kg is 169%. Further, in assay [1] (setting [7]), the response vs control in vivo at 50 mg/kg is 195%.

With `COc1ccc2c(c1)-c1nn(CCCN(C)C)c3ccc([N+](=O)[O-])c(c13)N2` [Example 45, 9-Methoxy-N,N-dimethyl-5-nitropyrazolo[3,4,5-kl]acridine-2(6H)-propanamine,methanesulfonate], the IC50 in the assay on HCT-8 cells (HCT-8, read-out: HCA ED50 Avg.) was 0.14 µM; in the assay with L1210 cells (L1210, 72 h) it was 0.42 µM. The MIC in the assay with Alcaligenes viscolactis was less than 0.46 µg/mL; in the assay with Bacillus cereus it was 1.4 µg/mL; in the assay on Branhamella catarrhalis it was 1.4 µg/mL; in the assay on Escherichia coli, 12.3 µg/mL; in the assay on Streptococcus pneumoniae, less than 0.46 µg/mL. For the same molecule, the response vs control in vivo at 6.25 mg/kg in assay [1] (setting [8]) came out at 189%. Further, the response vs control in vivo at 12.5 mg/kg in assay [1] (setting [9]) came out at 227%. Besides, in assay [1] (setting [10]), the response vs control in vivo at 25 mg/kg was 261%.

Take `COc1ccc2c(c1)-c1nn(CCN(C)C)c3c([N+](=O)[O-])cc([N+](=O)[O-])c(c13)N2` [Example 54, 9-Methoxy-N,N-dimethyl-3,5-dinitropyrazolo[3,4,5-kl]acridine-2(6H)-ethanamine, methanesulfonate (1:1), hydrate]: the IC50 with HCT-8 cells (setting [11]) was found to be 0.055 µM; with L1210 cells (L1210, 72 h), 0.22 µM. The MIC with Alcaligenes viscolactis, in the assay with Bacillus cereus, with Branhamella catarrhalis, in the assay on Escherichia coli and with Streptococcus pneumoniae was 0.46 µg/mL throughout. The response vs control in vivo at 1.56 mg/kg in assay [1] (read-out: P388 in vivo T/C × 100, 1.56 mg/kg, intraperitoneally once daily for five days) amounted to 132%. The response vs control in vivo at 3.12 mg/kg in assay [1] (read-out: P388 in vivo T/C × 100, 3.12 mg/kg, intraperitoneally once daily for five days) was found to be 137%. In addition, the response vs control in vivo at 6.25 mg/kg in assay [1] (setting [8]) came to 169%. Moreover, in assay [1] (setting [9]), the response vs control in vivo at 12.5 mg/kg amounted to 236%.

For the molecule `CCN(CC)CCn1nc2c3c(c([N+](=O)[O-])cc([N+](=O)[O-])c31)Nc1ccc(OC)cc1-2` [Example 50, N,N-Diethyl-9-methoxy-3,5-dinitropyrazolo[3,4,5-kl]acridine-2(6H)-ethanamine, methanesulfonate (1:1), hydrate], the IC50 in the assay on HCT-8 cells (setting [11]) came out at 0.066 µM; in the assay on L1210 cells (L1210, 72 h), 0.4 µM. The MIC with Alcaligenes viscolactis is less than 0.46 µg/mL; with Bacillus cereus it was 4.1 µg/mL; with Branhamella catarrhalis, less than 0.46 µg/mL; in the assay with Escherichia coli it was less than 0.46 µg/mL; with Streptococcus pneumoniae, less than 0.46 µg/mL. Moreover, the response vs control in vivo at 6.25 mg/kg in assay [1] (setting [8]) was found to be 160%. In addition, the response vs control in vivo at 12.5 mg/kg in assay [1] (setting [9]) is 166%. The response vs control in vivo at 25 mg/kg in assay [1] (setting [10]) worked out at 169%. The response vs control in vivo at 50 mg/kg in assay [1] (read-out: P388 in vivo T/C × 100, 50 mg/kg, intraperitoneally once daily for five days) was 226%.

Consider `CCN(CC)CCn1nc2c3c(c([N+](=O)[O-])ccc31)Nc1ccc(N(C)C)cc1-2.CS(=O)(=O)O.CS(=O)(=O)O` [Example 33, 9-(Dimethylamino)-N,N-diethyl-5-nitropyrazolo[3,4,5-kl]acridine-2(6H)-ethanamine, methanesulfonate (1:2)], for which the IC50 is 0.32 µM in the assay with HCT-8 cells (setting [2]) and 0.9 µM with L1210 cells (72 h, L1210 cells, three days). Moreover, the MIC in the assay on Alcaligenes viscolactis (setting [3]) amounted to 1.4 µg/mL; in the assay with Bacillus cereus (setting [3]), 37 µg/mL; with Branhamella catarrhalis (setting [3]), 12.3 µg/mL; with Escherichia coli (setting [3]), 37 µg/mL; in the assay on Streptococcus pneumoniae (setting [3]) it was 1.4 µg/mL. Further, in assay [1] (setting [5]), the response vs control in vivo at 12.5 mg/kg was determined as 127%. Further, the response vs control in vivo at 25 mg/kg in assay [1] (setting [6]) was 158%.

For the molecule `CCNCCn1nc2c3c(c([N+](=O)[O-])ccc31)Nc1ccc(OC)cc1-2` [Example 36, N-Ethyl-9-methoxy-5-nitropyrazolo[3,4,5-kl]acridine-2(6H)-ethanamine, 1.25 methanesulfonate salt (4:5), hemihydrate], the IC50 amounted to 0.12 µM in the assay on HCT-8 cells (setting [2]) and 0.21 µM in the assay on L1210 cells (72 h, L1210 cells, three days). Further, the MIC in the assay with Alcaligenes viscolactis (setting [3]) is less than 0.46 µg/mL; in the assay on Bacillus cereus (setting [3]), 1.4 µg/mL; with Branhamella catarrhalis (setting [3]) it was less than 0.46 µg/mL; in the assay on Escherichia coli (setting [3]), 1.4 µg/mL; in the assay on Streptococcus pneumoniae (setting [3]), less than 0.46 µg/mL. Further, the response vs control in vivo at 12.5 mg/kg in assay [1] (setting [5]) was found to be 169%. In addition, the response vs control in vivo at 25 mg/kg in assay [1] (setting [6]) came out at 160%. For the same molecule, in assay [1] (setting [7]), the response vs control in vivo at 50 mg/kg worked out at 223%.

`CCOc1ccc2c(c1)-c1nn(CCN(C)C)c3ccc([N+](=O)[O-])c(c13)N2` [Example 37, 9-Ethoxy-N,N-dimethyl-5-nitropyrazolo[3,4,5-kl]acridine-2(6H)ethanamine, methanesulfonate (4:5)]: the IC50 in the assay on HCT-8 cells (setting [2]) came to 0.025 µM; with L1210 cells (72 h, L1210 cells, three days), 0.27 µM. In addition, the MIC in the assay with Alcaligenes viscolactis (setting [3]) was less than 0.46 µg/mL; with Bacillus cereus (setting [3]), 4.1 µg/mL; in the assay with Branhamella catarrhalis (setting [3]), 1.4 µg/mL; in the assay on Escherichia coli (setting [3]), less than 0.46 µg/mL; in the assay on Streptococcus pneumoniae (setting [3]), less than 0.46 µg/mL. In assay [1] (3.12 mg/kg, intraperitoneally once daily for five days, read-out: P388 in vivo T/C × 100), the response vs control in vivo at 3.12 mg/kg came out at 150%. For the same molecule, in assay [1] (setting [4]), the response vs control in vivo at 6.25 mg/kg was 191%. Also, in assay [1] (setting [5]), the response vs control in vivo at 12.5 mg/kg was 234%.
